Measurements: patent publication US20230138225A1, “PYRAZOLE CARBOXYLATE ESTER COMPOUND AND USE THEREOF” (SHENYANG SINOCHEM AGROCHEMICALS R&D CO., LTD., priority 2020, published 2023)

Assays:
Assay in all cases: Herbicidal activity, post-emergence stem and leaf spray in greenhouse
Assay type in all cases: in vivo
Conditions in all cases: Post-emergence treatment
[1] = tested on: Setaria glauca (L.) Beauv.
Source text: (§1) Seeds of broadleaf weeds (Zinnia elegans Jacq. and Abutilon theophrasti Medic.) or grass weeds (Setaria glauca (L.) Beauv. and Echinochloa crusgalli (L.) Beauv.) were respectively sown in a paper cup having a diameter of 7 cm and containing nutrient soil. After sowing, the seeds were covered with 1 cm of soil, the soil was pressed and watered, and then the seeds were cultivated in a greenhouse according to a conventional method, and stems and leaves were sprayed after 2-3 leaf stage of the weeds.
(§2) The compounds of the present invention were dissolved in acetone, and then diluted with 0.1% aqueous solution of Tween 80 to form the test liquid. According to the design dose of the test, spray treatment was carried out by track sprayer (Engineer Research Ltd., pressure 1.95 kg/cm^2, volume 500 L/hm^2, track speed 1.48 km/h). The test was repeated for three times. The test material was treated and then placed in an operation hall. The medicinal liquid was naturally dried in the shade, and then was placed in a greenhouse and managed according to the conventional method. The response of the weeds to the drug was visually observed and recorded. After treatment, the state of growth of the respective weeds were visually observed regularly to determine the growth inhibition rate (%) in accordance with the following evaluation standard.
(§3) Growth inhibition rate (%): 0=no discernible action: 100=all weeds dead or not emerged.

[2] = tested on: Abutilon theophrasti Medic.
Source text: as §1, §2, §3

[3] = tested on: Zinnia elegans Jacq.
Source text: as §1, §2, §3

[4] = dose 37.5 g a.i./hm^2, Table 3 parallel test
[5] = dose 75 g a.i./hm^2, Table 3 parallel test

Row | SMILES | growth inhibition rate % ([1]; dose 37.5 g a.i./hm^2, Table 2) [%] | growth inhibition rate % ([1]; dose 150 g a.i./hm^2, Table 2) [%] | growth inhibition rate % ([1]; dose 600 g a.i./hm^2, Table 2) [%] | growth inhibition rate % [2, 4] [%] | growth inhibition rate % [2, 5] [%] | growth inhibition rate % [1, 4] [%] | growth inhibition rate % [1, 5] [%] | growth inhibition rate % [3, 4] [%] | growth inhibition rate % [3, 5] [%]
1 | CCn1nc(C(=O)Oc2c(C(=O)c3ccc(S(C)(=O)=O)c(OCCOC)c3C)c(C)nn2C(C)C)cc1C [Compound 1-34] | 65 | 100 | 100 |  |  |  |  |  | 
2 | CCn1nc(C)cc1C(=O)Oc1c(C(=O)c2ccc(S(C)(=O)=O)c(OCCOC)c2C)cnn1CC [Compound 1-139] | 80 | 100 | 100 |  |  |  |  |  | 
3 | C=CCOc1c(S(C)(=O)=O)ccc(C(=O)c2c(C)nn(C)c2OC(=O)c2cc(C)n(CC)n2)c1C [Compound 1-26] | 75 | 100 | 100 |  |  |  |  |  | 
4 | CCn1nc(C(=O)Oc2c(C(=O)c3ccc(S(C)(=O)=O)c(OCC4CC4)c3C)c(C)nn2C)cc1C [Compound 1-20] | 65 | 100 | 100 |  |  |  |  |  | 
5 | CCn1nc(C(=O)Oc2c(C(=O)c3ccc(S(C)(=O)=O)c(OCCOC)c3C)c(C)nn2CC)cc1C [Compound 1-37] | 100 | 100 | 100 |  |  |  |  |  | 
6 | CCOCCOc1c(S(C)(=O)=O)ccc(C(=O)c2c(C)nn(C)c2OC(=O)c2cc(C)n(CC)n2)c1C [Compound 1-44] | 70 | 100 | 100 |  |  |  |  |  | 
7 | CCc1nn(C)c(OC(=O)c2cc(C)n(CC)n2)c1C(=O)c1ccc(S(C)(=O)=O)c(OCCOC)c1C [Compound 1-36] | 70 | 100 | 100 |  |  |  |  |  | 
8 | CCn1ncc(C(=O)c2ccc(S(C)(=O)=O)c(COCC(F)(F)F)c2Cl)c1OC(=O)c1cn(C)nc1C [KC3, fenpyrazone, reference compound] |  |  |  | 30 | 95 | 60 | 70 | 40 | 50
9 | CCn1nc(C(=O)Oc2c(C(=O)c3ccc(S(C)(=O)=O)c(OCCOC)c3C)c(C)nn2C)cc1C [Compound 1-33] | 70 | 100 | 100 |  |  |  |  |  | 
10 | CCn1nc(C(=O)Oc2c(C(=O)c3ccc(S(C)(=O)=O)c(OCCOC)c3C)cnn2CC)cc1C [Compound 1-32] | 90 | 100 | 100 | 100 | 100 | 90 | 100 | 100 | 100
11 | CCn1nc(C)cc1C(=O)Oc1c(C(=O)c2ccc(S(C)(=O)=O)c(OCCOC)c2C)c(C)nn1C [Compound 1-140] | 80 | 100 | 100 |  |  |  |  |  | 
